According to US10689395B2, “Tricyclic fused pyridin-2-one derivatives and their use as BRD4 inhibitors” (JUBILANT BIOSYS LIMITED, priority 2015, dated 2020):
Like-named read-outs stand apart in the source and are kept apart here.

What was measured:
MV4-11 cells = test: Anticancer activity: Alamar Blue assay, 3-day proliferation; type: cell-based; conditions: AML cell line MV4-11, 72 h, read-out: MV4-11 EC50_μM
Procedure: Anticancer Activity: Alamar Blue Assay
The impact of the compounds on cancer cell proliferation was determined using the AML cell line MV4-11 (ATCC) in a 3-day proliferation assay. MV4-11 cells were maintained in RPMI supplemented with 10% FBS at 37° C., 5% CO2. For compound testing, MV4-11 cells were plated in a 96-well black bottom plate at a density of 15,000 cells/well in 100 μL culture media and incubated at 37° C. overnight. Compound dilution series were prepared in DMSO via a 3-fold serial dilution from 100 μM to 0.005 μM. The DMSO dilution series were then diluted with media, with the final compound concentrations added to the wells ranging from 10 μM to 0.0005 μM. […] The fluorescent readings from the Alamar Blue assay were normalized to the DMSO treated cells and analyzed using the GraphPad Prism software with sigmoidal curve fitting to obtain EC50.

BRD4-BD1 = BRD4-BD1 (Homo sapiens (Human), UniProt O60885); test: BRD4 AlphaLISA (Perkin Elmer); type: binding; conditions: 5 nM BRD4-BD1, 12 nM biotinylated substrate, read-out: BRD4_BD1 IC50_μM
Procedure: BRD4 AlphaLISA (Perkin Elmer)
Compounds were diluted by step-down dilution method (final concentration of DMSO was 1%) and added to the wells of a 384 well opti plate at desired concentrations. 5 nM BDR4-BD1 enzyme (produced in-house) and 12 nM of biotinylated substrate were added to the wells, covered and incubated at room temperature (RT) for 1 h. At the end of 1 h 250 ng of GSH acceptor beads were added to the well and incubated for 1 h at RT; then 500 ng of streptavidin donor beads were added and incubated again for 1 h at RT. Plates were read in a Pherastar reader at 680 nm excitation and 570 nm emission. As detailed above, compounds were tested for both BRD4 enzyme inhibitory activities and IC50 were determined.

| EC50 (MV4-11 cells) | IC50 (BRD4-BD1) | EC50 (MV4-11 cells; Homo sapiens) | SMILES |
| --- | --- | --- | --- |
|  | 5 nM | 53 nM | CCNC(=O)C[C@@H]1N=C(c2ccc(Cl)cc2)c2c(cnn2C)-c2cn(C)c(=O)cc21 [z, (S)-2-(4-(4-chlorophenyl)-3,9-dimethyl-8-oxo-3,6,8,9-tetrahydropyrazolo[3,4-c]pyrido[3,4-e]azepin-6-yl)-N-ethylacetamide] |
| 140 nM | 1 nM |  | CCNC(=O)CC1N=C(c2ccc(Cl)cc2)c2nc(C)sc2-c2cn(C)c(=O)cc21 (racemic) [m, ±2-(4-(4-chlorophenyl)-2,9-dimethyl-8-oxo-8,9-dihydro-6H-pyrido[4,3-c]thiazolo[5,4-e]azepin-6-yl)-N-ethylacetamide] |
|  | 17 nM |  | Cc1sc2c(c1C)C(c1ccc(Cl)cc1)OC(CCO)c1cc(=O)n(C)cc1-2 (racemic) [hh, ±4-(4-chlorophenyl)-6-(2-hydroxyethyl)-2,3,9-trimethyl-4,9-dihydrothieno[2′,3′:5,6]oxepino[4,3-c]pyridin-8(6H)-one] |
|  | < 0.5 nM | 25 nM | CCNC(=O)CC1N=C(c2ccc(C#N)cc2)c2c(sc(C)c2C)-c2cn(C)c(=O)cc21 (stereo in doubt) [k, (R)-2-(4-(4-cyanophenyl)-2,3,9-trimethyl-8-oxo-8,9-dihydro-6H-pyrido[4,3-c]thieno[2,3-e]azepin-6-yl)-N-ethylacetamide] |
|  | 2 nM | 7 nM | Cc1sc2c(c1C)C(c1ccc(Cl)cc1)=NC(CC(N)=O)c1cc(=O)n(C)cc1-2 (racemic) [e, ±2-(4-(4-chlorophenyl)-2,3,9-trimethyl-8-oxo-8,9-dihydro-6H-pyrido[4,3-c]thieno[2,3-e]azepin-6-yl)acetamide] |
| 17 nM | 2 nM |  | CCNC(=O)CC1N=C(c2ccc(Cl)cc2)c2cc(OC)ncc2-c2cn(C)c(=O)cc21 (racemic) [t, ±2-(7-(4-chlorophenyl)-9-methoxy-2-methyl-3-oxo-3,5-dihydro-2H-dipyrido[4,3-c:3′,4′-e]azepin-5-yl)-N-ethylacetamide] |

More lines, now with the values behind:

| SMILES | EC50 (MV4-11 cells) | IC50 (BRD4-BD1) | EC50 (MV4-11 cells; Homo sapiens) |
| --- | --- | --- | --- |
| CCNC(=O)CC1OC(c2ccc(Cl)cc2)c2c(cnn2C)-c2cn(C)c(=O)cc21 (racemic) [ll, ±2-(4-(4-chlorophenyl)-3,9-dimethyl-8-oxo-4,6,8,9-tetrahydro-3H-pyrazolo[4′,3′:5,6]oxepino[4,3-c]pyridin-6-yl)-N-ethylacetamide] | < 0.5 nM | 1 nM |  |
| CCOC(=O)CC1N=C(c2ccc(Cl)cc2)c2c(cnn2C)-c2cn(C)c(=O)cc21 (racemic) [w, ±Ethyl 2-(4-(4-chlorophenyl)-3,9-dimethyl-8-oxo-3,6,8,9-tetrahydropyrazolo[3,4-c]pyrido[3,4-e]azepin-6-yl)acetate] | 26 nM | 10 nM |  |
| CCNC(=O)CC1N=C(CC2CC2)c2c(sc(C)c2C)-c2cn(C)c(=O)cc21 (racemic) [r, ±2-(4-(cyclopropylmethyl)-2,3,9-trimethyl-8-oxo-8,9-dihydro-6H-pyrido[4,3-c]thieno[2,3-e]azepin-6-yl)-N-ethylacetamide] | 157 nM | 10 nM |  |
| Cc1sc2c(c1C)C(c1ccc(Cl)cc1)=NC(CC(=O)Nc1ccc(O)cc1)c1cc(=O)n(C)cc1-2 (racemic) [h, ±2-(4-(4-chlorophenyl)-2,3,9-trimethyl-8-oxo-8,9-dihydro-6H-pyrido[4,3-c]thieno[2,3-e]azepin-6-yl)-N-(4-hydroxyphenyl)acetamide] |  | 33 nM |  |
| CCNC(=O)CC1OC(c2ccc(Cl)cc2)c2c(sc(C)c2C)-c2cn(C)c(=O)cc21 (racemic) [bb, ±2-(4-(4-chlorophenyl)-2,3,9-trimethyl-8-oxo-4,6,8,9-tetrahydrothieno[2′,3′:5,6]oxepino[4,3-c]pyridin-6-yl)-N-ethylacetamide] | < 0.5 nM | 1 nM |  |
| CCOC(=O)CC1N=C(c2ccc(Cl)cc2)c2nc(C)sc2-c2cn(C)c(=O)cc21 (racemic) [l, ±Ethyl 2-(4-(4-chlorophenyl)-2,9-dimethyl-8-oxo-8,9-dihydro-6H-pyrido[4,3-c]thiazolo[5,4-e]azepin-6-yl)acetate] | 430 nM | 140 nM |  |
| Cc1sc2c(c1C)C(c1ccc(Cl)cc1)OC(CC(N)=O)c1cc(=O)n(C)cc1-2 (racemic) [ee, ±2-(4-(4-chlorophenyl)-2,3,9-trimethyl-8-oxo-4,6,8,9-tetrahydrothieno[2′,3′:5,6]oxepino[4,3-c]pyridin-6-yl)acetamide] |  | 2 nM | 7 nM |
| CCNC(=O)CC1N=C(c2ccc(Cl)cc2)c2c(sc(C)c2C)-c2cn(C)c(=O)cc21 (racemic) [b, ±2-(4-(4-chlorophenyl)-2,3,9-trimethyl-8-oxo-8,9-dihydro-6H-pyrido[4,3-c]thieno[2,3-e]azepin-6-yl)-N-ethylacetamide] |  | 2.2 nM | 10 nM |
